The text below walks through data of patent US11202773B2, “Locally bioavailable drugs” (UNIVERSITY OF HOUSTON SYSTEM, priority 2015, dated 2021).

Molecules are shown by their SMILES.

The target of data set [1] is T1, human COX-2 (Homo sapiens, UniProt P35354).
T1 sequence (P35354 18-604): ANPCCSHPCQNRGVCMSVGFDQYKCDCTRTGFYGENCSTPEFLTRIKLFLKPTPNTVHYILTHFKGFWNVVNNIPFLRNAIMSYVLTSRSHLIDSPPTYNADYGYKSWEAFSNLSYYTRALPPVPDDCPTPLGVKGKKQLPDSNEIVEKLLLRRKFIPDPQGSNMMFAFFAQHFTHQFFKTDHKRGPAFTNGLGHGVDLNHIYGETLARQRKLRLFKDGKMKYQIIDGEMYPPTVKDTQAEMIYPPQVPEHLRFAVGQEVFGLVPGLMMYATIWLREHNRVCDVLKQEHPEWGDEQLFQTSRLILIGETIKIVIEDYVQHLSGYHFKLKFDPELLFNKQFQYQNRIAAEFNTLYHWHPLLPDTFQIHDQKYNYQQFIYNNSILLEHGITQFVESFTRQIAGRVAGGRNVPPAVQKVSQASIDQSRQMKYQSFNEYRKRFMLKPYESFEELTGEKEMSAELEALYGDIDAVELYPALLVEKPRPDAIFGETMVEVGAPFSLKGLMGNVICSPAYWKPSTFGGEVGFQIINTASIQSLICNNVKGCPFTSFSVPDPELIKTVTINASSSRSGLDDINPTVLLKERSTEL
Kind of data set: COX-2 activity (PGE2 production) in HCA-7 cells after A23187. Format: cell-based. Set-up: HCA-7 is a human colon cancer cell line in which COX-2 protein is constitutively expressed; endogenous in cells; host or cells: HCA-7. The conditions noted are these: 30 min pre-incubation, 10 μM A23187, another 30 minutes. Here is the method: (§1) First, the inhibitory effects of the new synthesized compounds on COX-2 were assayed in two cell lines: Raw264.7 cells and HCA-7 cells. Raw264.7 is a mouse macrophage cell line which expresses a high level of COX-2 protein upon lipopolysaccharide (LPS) induction. […] The concentration of prostaglandins (both PGD2 and PGE2) accumulated in the cell culture medium can be employed as an indicator of COX-2 activity. HCA-7 is a human colon cancer cell line in which COX-2 protein is constitutively expressed. Briefly, the cells were pre-incubated with different concentrations of the new compounds for 30 min, and then 10 μM A23187 (a calcium ionophore) was added to release membrane-bound arachidonic acid (the natural substrate of COX-2) to the cytosolic domain. The system was incubated for another 30 minutes and PGE2 concentrations in the culture medium were determined. In both cell lines, higher PGD2/PGE2 concentrations in the media meant more COX-2 activity.

A further data set concerns the target T2, mouse COX-2 (Mus musculus, UniProt Q05769).
T2 construct: Raw264.7 is a mouse macrophage cell line which expresses a high level of COX-2 protein upon lipopolysaccharide (LPS) induction; endogenous in cells; host or cells: Raw264.7 (LPS-induced)
T2 sequence (Q05769 18-604): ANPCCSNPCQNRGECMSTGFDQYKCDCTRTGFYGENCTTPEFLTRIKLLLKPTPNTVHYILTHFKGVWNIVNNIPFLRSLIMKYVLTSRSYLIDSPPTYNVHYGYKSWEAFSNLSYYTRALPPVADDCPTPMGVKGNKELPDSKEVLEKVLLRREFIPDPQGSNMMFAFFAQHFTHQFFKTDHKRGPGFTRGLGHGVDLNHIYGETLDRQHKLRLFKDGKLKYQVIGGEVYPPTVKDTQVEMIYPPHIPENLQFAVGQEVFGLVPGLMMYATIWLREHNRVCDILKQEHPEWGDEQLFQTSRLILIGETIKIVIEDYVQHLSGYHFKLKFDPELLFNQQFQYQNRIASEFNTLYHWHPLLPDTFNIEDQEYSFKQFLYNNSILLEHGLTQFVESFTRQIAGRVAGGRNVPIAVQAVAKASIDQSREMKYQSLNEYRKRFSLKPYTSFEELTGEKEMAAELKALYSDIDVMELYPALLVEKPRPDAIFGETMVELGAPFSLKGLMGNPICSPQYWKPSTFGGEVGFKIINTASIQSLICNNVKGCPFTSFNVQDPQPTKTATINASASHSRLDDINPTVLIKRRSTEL
Kind of data set: COX-2 activity (PGD2/PGE2 production) in LPS-induced Raw264.7 cells. The conditions noted are these: 0.1 μg/mL LPS, 14 hours co-incubation. Type of data set: cell-based. Here is the method: as §1

Data set [2] concerns the target T1, human COX-2. Description: In vitro enzyme assay, recombinant human COX-2 (PGE2 production). Type of data set: biochemical. The conditions noted are these: read-out: IC50 against recombinant human COX-2. The source says: FIG. 3A is a bar graph illustration of PGE2 production by recombinant human COX-2 enzyme in the presence of the new compounds. Less PGE2 production means inhibition of COX-2 enzyme.
FIG. 3B is a bar graph illustration of PGE2 production by recombinant human COX-2 enzyme in the presence of the metabolites of the new compounds. Less PGE2 production means inhibition of COX-2 enzyme.

The subject of a further data set is rat liver microsomes. Description: Glucuronidation by rat liver microsomes. Type of data set: in vitro ADME. Here is the method: (§2) FIG. 5A is a bar graph illustrating in vitro metabolism of phenolics via glucuronidation pathway. Glucuronidation rates of all the new locally bioavailable COX-2 inhibitors by rat liver microsomes. Additional metabolic rates of various locally bioavailable COX-2 inhibitors are in Table 3. […]. The incubation systems were: for glucuronidation, 0.88 mM magnesium chloride (MgCl2), 4.4 mM saccharolactone, 0.022 mg/mL alamethicin, 3.5 mM uridine 5′-diphospho-glucuronic acid (UDPGA), 10 μM substrates and different concentrations of microsomes in 50 mM potassium phosphate buffer (pH 7.4); for sulfation, 10 mM dithiothreitol (DTT), 5 mM MgCl2, 100 μM 3′-phosphoadenosine-5′-phosphosulfate (PAPS),10 μM substrate and different concentrations of S9 fractions in 50 mM potassium phosphate buffer (pH 7.4).
(§3) In vitro tools were employed to help predict the in vivo metabolism rates of the COX-2 inhibitors that are phenolics. The microsomes and S9 fractions prepared from colon or liver were used to determine the in vivo glucuronidation and sulfation rates of the phenolic compounds, respectively. By employing microsomes and S9 fractions prepared from both rats and humans, it could be determined if the results obtained in the rat model could be reasonably extrapolated to humans. In these experiments, raloxifene and genistein, two phenolic compounds which undergo extensive first-pass metabolism, were selected as controls.
In general terms: Microsomes from liver hold many membrane-bound enzymes, among them those of drug oxidation.

Another data set has as its target recombinant human COX-1 (Homo sapiens, UniProt P23219). Kind of data set: In vitro enzyme assay, recombinant human COX-1. Type of data set: biochemical. The conditions noted are these: read-out: IC50 against recombinant human COX-1.
The next data set relates to human liver microsomes. Kind of data set: Glucuronidation by human liver microsomes. Format: in vitro ADME. The method, then:
as §2, with “FIG. 5D” for “FIG. 5A”, “of phenolics.” for “of phenolics via glucuronidation pathway.”, “of 6a1-6a4” for “of all the new locally bioavailable COX-2 inhibitors”, “by human” for “by rat”, “liver and intestinal” for “liver”, “Table 4.” for “Table 3.”
as §3

Data set [3] deals with human intestine microsomes. Kind of data set: Glucuronidation by human intestine microsomes. Format: in vitro ADME. Here is the method:
as §2, with “FIG. 5D” for “FIG. 5A”, “of phenolics.” for “of phenolics via glucuronidation pathway.”, “of 6a1-6a4” for “of all the new locally bioavailable COX-2 inhibitors”, “by human” for “by rat”, “liver and intestinal” for “liver”, “Table 4.” for “Table 3.”
as §3

The test system of another data set is rat colon microsomes. Description: Glucuronidation by rat colon microsomes. Type of data set: in vitro ADME. Here is the method:
as §2, with “5B” for “5A”, “glucuronidation” for “metabolism”, “in liver and colon microsomes of rats.” for “via glucuronidation pathway.”, “6a1-6a4” for “all the new locally bioavailable COX-2 inhibitors”, “and colon microsomes were measured.” for “microsomes.”, “(PAPS), 10” for “(PAPS),10”
as §3

For data set [4], the system named is human Colon S9. Description: Sulfation by human colon S9. Type of data set: in vitro ADME. The conditions noted are these: substrate 10 μM. The method, then: as §2, with “FIG. 5D” for “FIG. 5A”, “of phenolics.” for “of phenolics via glucuronidation pathway.”, “of 6a1-6a4” for “of all the new locally bioavailable COX-2 inhibitors”, “by human” for “by rat”, “liver and intestinal” for “liver”, “Table 4.” for “Table 3.”
as §3

Data set [5] has as its system human Colon S9. Kind of data set: Glucuronidation by human colon S9. Type of data set: in vitro ADME. The conditions noted are these: substrate 10 μM. Here is the method: as §2, with “FIG. 5D” for “FIG. 5A”, “of phenolics.” for “of phenolics via glucuronidation pathway.”, “of 6a1-6a4” for “of all the new locally bioavailable COX-2 inhibitors”, “by human” for “by rat”, “liver and intestinal” for “liver”, “Table 4.” for “Table 3.”
In vitro tools were employed to help predict the in vivo metabolism rates of the COX-2 inhibitors that are phenolics. […] By employing microsomes and S9 fractions prepared from both rats and humans, it could be determined if the results obtained in the rat model could be reasonably extrapolated to humans. In these experiments, raloxifene and genistein, two phenolic compounds which undergo extensive first-pass metabolism, were selected as controls.

Chain of recombinant human COX-1 (P23219 24-599): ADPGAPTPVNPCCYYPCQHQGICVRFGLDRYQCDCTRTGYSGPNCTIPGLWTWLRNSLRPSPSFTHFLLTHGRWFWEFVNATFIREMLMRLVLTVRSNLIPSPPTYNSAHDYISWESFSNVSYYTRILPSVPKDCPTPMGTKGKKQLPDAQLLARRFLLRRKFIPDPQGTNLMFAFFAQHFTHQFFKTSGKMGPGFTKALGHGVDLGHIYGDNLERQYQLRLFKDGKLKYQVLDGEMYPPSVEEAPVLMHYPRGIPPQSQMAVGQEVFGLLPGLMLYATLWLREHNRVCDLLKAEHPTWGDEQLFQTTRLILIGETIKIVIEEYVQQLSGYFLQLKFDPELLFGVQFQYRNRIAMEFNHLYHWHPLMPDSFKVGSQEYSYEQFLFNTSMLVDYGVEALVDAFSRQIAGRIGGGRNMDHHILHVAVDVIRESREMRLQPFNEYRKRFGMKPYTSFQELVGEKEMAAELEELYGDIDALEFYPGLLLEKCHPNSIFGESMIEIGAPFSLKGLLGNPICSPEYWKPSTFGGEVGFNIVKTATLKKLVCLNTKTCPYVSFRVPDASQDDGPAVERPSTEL

What is called IC50 is the concentration at which inhibition is half-maximal. Turning to `CCOC(=O)c1cc(-c2ccc(C)cc2)n(-c2ccc(S(N)(=O)=O)cc2)n1` [Compound 3a], the 50% inhibitory concentration (IC50) on human COX-2 [1] is 0.149 ± 0.026 µM; on mouse COX-2, 0.071 ± 0.021 µM.
`Cc1ccc(-c2cc(COc3ccc4c(=O)c(O)c(-c5ccccc5)oc4c3)nn2-c2ccc(S(N)(=O)=O)cc2)cc1` [Compound 6a4]: the IC50 at human COX-2 [2] was found to be 2590 nM; on recombinant human COX-1, 16000 nM; on human COX-2 [1], 0.162 ± 0.065 µM; on mouse COX-2, 0.303 ± 0.055 µM. For the same molecule, the “Glucuronidation by rat liver microsomes (FIG. 5A)” value with rat liver microsomes is given as “rapidly glucuronidated”. Besides, the “Glucuronidation rates by liver microsomes (Mean)” value in the data set with rat liver microsomes amounted to 4763 pmol/mg/min; with human liver microsomes, 291 pmol/mg/min. Besides, the “Glucuronidation rates by intestine microsomes (Mean)” value in [3] was 2134 pmol/mg/min. Further, the “Glucuronidation rates by colon microsomes (Mean)” value in the data set with rat colon microsomes turned out to be 571 pmol/mg/min.
With `NS(=O)(=O)c1ccc(-n2nc(COc3ccccc3O)cc2-c2ccccc2)cc1` [Compound 6b1], the concentration for half-maximal inhibition (IC50) on human COX-2 [2] is 54500 nM; at recombinant human COX-1 it was 197000 nM. Besides, in the data set with rat liver microsomes, the “Glucuronidation rates by liver microsomes (Mean)” value was 7453 pmol/mg/min.
As for `NS(=O)(=O)c1ccc(-n2nc(COc3cccc(O)c3)cc2-c2ccccc2)cc1` [Compound 6b2], the IC50 was 207 nM on human COX-2 [2], 145000 nM on recombinant human COX-1 and 4.31 ± 0.629 µM at mouse COX-2. Moreover, the “Glucuronidation rates by liver microsomes (Mean)” value with rat liver microsomes came to 4132 pmol/mg/min.
`NS(=O)(=O)c1ccc(-n2nc(COc3ccc(O)cc3)cc2-c2ccccc2)cc1` [Compound 6b3]: the results for the concentration for half-maximal inhibition (IC50) on human COX-2 [2], on recombinant human COX-1 and at mouse COX-2 were 2250 nM, 28 nM and 0.033 ± 0.004 µM, respectively. Further, the “Glucuronidation rates by liver microsomes (Mean)” value in the data set on rat liver microsomes was 656 pmol/mg/min.
Regarding `COc1ccc(-c2cc(COc3ccccc3O)nn2-c2ccc(S(N)(=O)=O)cc2)cc1` [Compound 6c1], the IC50 at human COX-2 [2] was determined as 40.3 nM; at recombinant human COX-1, 19800 nM. In addition, the “Glucuronidation rates by liver microsomes (Mean)” value in the data set with rat liver microsomes stood at 7026 pmol/mg/min.
For the molecule `COc1ccc(-c2cc(COc3cccc(O)c3)nn2-c2ccc(S(N)(=O)=O)cc2)cc1` [Compound 6c2], the figures for the IC50 on human COX-2 [2], on recombinant human COX-1 and on mouse COX-2 were 353 nM, 1100 nM and 2.38 ± 0.502 µM, respectively. Also, the “Glucuronidation rates by liver microsomes (Mean)” value in the data set with rat liver microsomes was 3092 pmol/mg/min.
Consider `COc1ccc(-c2cc(COc3ccc(O)cc3)nn2-c2ccc(S(N)(=O)=O)cc2)cc1` [Compound 6c3], for which the concentration for half-maximal inhibition (IC50) on human COX-2 [2] is 623 nM; at recombinant human COX-1, 12600 nM; on mouse COX-2 it was 0.019 ± 0.002 µM. In addition, the “Glucuronidation rates by liver microsomes (Mean)” value in the data set with rat liver microsomes amounted to 934 pmol/mg/min.
Take `Cc1ccc(-c2cc(COCc3ccccc3O)nn2-c2ccc(S(N)(=O)=O)cc2)cc1` [Compound 7a1]: the values for the IC50 on human COX-2 [2] and on recombinant human COX-1 were 1.11 nM and 4900 nM, respectively. Besides, the “Glucuronidation rates by liver microsomes (Mean)” value with rat liver microsomes came out at 1050 pmol/mg/min; in the data set with human liver microsomes it was 2510 pmol/mg/min. In addition, the “Sulfation rates by human Colon S9 (Mean)” value in the data set with human Colon S9 [4] was 40 pmol/mg/min. Besides, in the data set on rat colon microsomes, the “Glucuronidation rates by colon microsomes (Mean)” value is 160 pmol/mg/min. Besides, the “Glucuronidation rates by human Colon S9 (Mean)” value with human Colon S9 [5] is 190 pmol/mg/min.
`COc1ccccc1COCc1cc(-c2ccc(C)cc2)n(-c2ccc(S(N)(=O)=O)cc2)n1` [Compound 7a3]: the IC50 at human COX-2 [2] turned out to be 40.3 nM; at recombinant human COX-1 it was 19800 nM.
